Earlier results in PubChem BioAssay AID1259409 (Chemical Carcinogenesis Research Information System (CCRIS), 2018).
Values joined by “and” are separate entries in the source; they are usually repeats but may differ in a detail not shown here. Equal values may be shown once.

Tested on: rodent chemically induced tumor inhibition, incidence and multiplicity
Assay: CCRIS tumor inhibitor studies

In the case of `N#CO`, the “tumour outcome (control, treated, inhibition, significance)” value (Carcinogen: 1,2-DIMETHYLHYDRAZINE, 540-73-8, Dose [Inhibitor]: 0.013 MMOL/G IN DIET BEGINNING 1 WK POST LAST CARCINOGEN DOSE (STUDY DURATION: 42 WK), Route [Inhibitor]: ORAL, Species: MOUSE, Strain/Sex: CF-1/FEMALE, Target Tissue: Type of Lesion: LARGE BOWEL: ADENOCARCINOMA, Dose [Carcinogen]: 0.6 MG IN 0.2 ML EDTA SOLUTION (PH 6.5) 2X WK FOR 8 WKS., Promoter: NONE USED) is listed as 20%, 0%, 100%, p<0.05, the “tumour outcome (control, treated, inhibition, significance)” value (Carcinogen: 1,2-DIMETHYLHYDRAZINE, 540-73-8, Dose [Inhibitor]: 0.013 MMOL/G IN DIET BEGINNING 1 WK POST LAST CARCINOGEN DOSE (STUDY DURATION: 42 WK), Route [Inhibitor]: ORAL, Species: MOUSE, Strain/Sex: CF-1/FEMALE, Target Tissue: Type of Lesion: LARGE BOWEL: ADENOMA, Dose [Carcinogen]: 0.6 MG IN 0.2 ML EDTA SOLUTION (PH 6.5) 2/WK FOR 8 WK, Promoter: NONE USED) is listed as 41%, 18%, 56%, not significant and the “tumour outcome (control, treated, inhibition, significance)” value (Carcinogen: 1,2-DIMETHYLHYDRAZINE, 540-73-8, Dose [Inhibitor]: 0.026 MMOL/G IN DIET BEGINNING 1 WK POSE LAST CARCINOGEN DOSE (STUDY DURATION: 42 WK), Route [Inhibitor]: ORAL, Species: MOUSE, Strain/Sex: CF-1/FEMALE, Target Tissue: Type of Lesion: LARGE BOWEL: ADENOMA, Dose [Carcinogen]: 0.6 MG IN 0.2 ML EDTA SOLUTION (PH 6.5) 2/WK FOR 8 WK, Promoter: NONE USED) is listed as 41%, 17%, 58%, not significant. For the same compound, the “tumour outcome (control, treated, inhibition, significance)” value (Carcinogen: 1,2-DIMETHYLHYDRAZINE, 540-73-8, Dose [Inhibitor]: 0.026 MMOL/G IN DIET BEGINNING 1 WK POST LAST CARCINOGEN DOSE (STUDY DURATION: 42 WK), Route [Inhibitor]: ORAL, Species: MOUSE, Strain/Sex: CF-1/FEMALE, Target Tissue: Type of Lesion: LARGE BOWEL: ADENOCARCINOMA, Dose [Carcinogen]: 0.6 MG IN 0.2 ML EDTA SOLUTION (PH 6.5) 2/WK FOR 8 WK, Promoter: NONE USED) was 15%, 6%, 60%, not significant and 20%, 6%, 70%, not significant and 18%, 6%, 67%, not significant, the “tumour outcome (control, treated, inhibition, significance)” value (Carcinogen: 1,2-DIMETHYLHYDRAZINE, 540-73-8, Dose [Inhibitor]: 0.026 MMOL/G IN DIET BEGINNING 1 WK POST LAST CARCINOGEN DOSE (STUDY DURATION: 42 WK), Route [Inhibitor]: ORAL, Species: MOUSE, Strain/Sex: CF-1/FEMALE, Target Tissue: Type of Lesion: LARGE BOWEL: ADENOMA, Dose [Carcinogen]: 0.6 MG IN 0.2 ML EDTA SOLUTION (PH 6.5) 2/WK FOR 8 WK, Promoter: NONE USED) was 33%, 11%, 67%, not significant and 37%, 14%, 62%, p<0.05 and the “tumour outcome (control, treated, inhibition, significance)” value (Carcinogen: 7,12-DIMETHYLBENZ(A)ANTHRACENE, 57-97-6, Dose [Inhibitor]: 0.013 MMOL/G IN DIET BEGINNING 1 WK AFTER CARCINOGEN ADMINISTRATION (STUDY DURATION: 18 WK), Route [Inhibitor]: ORAL, Species: RAT, Strain/Sex: SPRAGUE-DAWLEY/FEMALE, Target Tissue: Type of Lesion: MAMMARY GLAND: TUMOR, Dose [Carcinogen]: 12 MG DMBA IN 1.0 ML OLIVE OIL ONCE, Promoter: NONE USED) was 100%, 77%, 23%, p<0.01. For the same compound, the “tumour outcome (control, treated, inhibition, significance)” value (Carcinogen: 7,12-DIMETHYLBENZ(A)ANTHRACENE, 57-97-6, Dose [Inhibitor]: 0.026 MMOL/G IN DIET BEGINNING 1 WK AFTER CARCINOGEN ADMINISTRATION (STUDY DURATION: 16 WK), Route [Inhibitor]: ORAL, Species: RAT, Strain/Sex: SPRAGUE-DAWLEY/FEMALE, Target Tissue: Type of Lesion: MAMMARY GLAND: TUMOR, Dose [Carcinogen]: 12 MG DMBA IN 1.0 ML OLIVE OIL ONCE, Promoter: NONE USED) was 100%, 60%, 40%, p<0.001 and the “tumour outcome (control, treated, inhibition, significance)” value (Carcinogen: 7,12-DIMETHYLBENZ(A)ANTHRACENE, 57-97-6, Dose [Inhibitor]: 0.026 MMOL/G IN DIET BEGINNING 1 WK AFTER CARCINOGEN ADMINISTRATION (STUDY DURATION: 18 WK), Route [Inhibitor]: ORAL, Species: RAT, Strain/Sex: SPRAGUE-DAWLEY/FEMALE, Target Tissue: Type of Lesion: MAMMARY GLAND: TUMOR, Dose [Carcinogen]: 12 MG DMBA IN 1.0 ML OLIVE OIL ONCE, Promoter: NONE USED) was 94%, 63%, 33%, p<0.05 and 100%, 63%, 37%, p<0.01.
In the case of `CC1(C)O[C@H]2CC(=O)OC[C@]23[C@H]2CC[C@@]4(C)[C@H](c5ccoc5)OC(=O)[C@H]5O[C@]54[C@]2(C)C(=O)C[C@@H]13`, the “tumour outcome (control, treated, inhibition, significance)” value (Carcinogen: AZOXYMETHANE, 25843-45-2, Dose [Inhibitor]: 0, 0.05% IN DIET FOR 35 WK BEGINNING 1 WK POST CARCINOGEN LAST DOSE (STUDY DURATION: 38 WK), Route [Inhibitor]: ORAL, Species: RAT, Strain/Sex: F344/MALE, Target Tissue: Type of Lesion: COLON: ADENOCARCINOMA, Dose [Carcinogen]: 20 MG/KG BW 1/WK FOR 2 WK) is given as 18/25 (72%), 1/16 (6%), 92%, p=0.00003 and 18/25 (72%), 2/16 (13%), 82%, p=0.0002.
For `C=CCSC[C@H](N)C(=O)O`, the outcome (Carcinogen: 7,12-DIMETHYLBENZ[A]ANTHRACENE (57-97-6), Dose [Inhibitor]: 0, 200 MG/KG ON ALTERNATE DAYS FOR 14 WK (STUDY DURATION: 14 WK), Route [Inhibitor]: ORAL, Species: HAMSTER, Strain/Sex: SYRIAN/MALE, Target Tissue: Type of Lesion: BUCCAL POUCH: SQUAMOUS CELL CARCINOMA, Dose [Carcinogen]: 0.5% IN LIQUID PARAFFIN TO RIGHT BUCCAL POUCH, ALTERNATE DAYS FOR 14 WK, Promoter: NONE USED) is listed as 10, 0, 100%, not calculated, the “tumour outcome (control, treated, inhibition, significance)” value (Carcinogen: N-METHYL-N'-NITRO-N-NITROSOGUANIDINE [70-25-7], Dose [Inhibitor]: 200 MG/KG 3X/WK BEGINNING ON DAY 1 (STUDY DURATION: 21 WK), Route [Inhibitor]: GAVAGE, Species: RAT, Strain/Sex: WISTAR/MALE, Target Tissue: Type of Lesion: STOMACH: CARCINOMA, Dose [Carcinogen]: 200 MG/KG BW ONCE ON DAYS 0 AND 14, Promoter: SODIUM CHLORIDE [7647-14-5]) is listed as 6/6 (100%), 0/6 (0%), 100%, not determined and the “tumour outcome (control, treated, inhibition, significance)” value (Carcinogen: N-METHYL-N-NITROSOUREA, 684-93-5, Dose [Inhibitor]: 0, 57 UMOL/KG DIET FOR 25 WK BEGINNING 2 WK PRIOR TO CARCINOGEN DOSE (STUDY DURATION: 25 WK), Route [Inhibitor]: ORAL, Species: RAT, Strain/Sex: SPRAGUE-DAWLEY/FEMALE, Target Tissue: Type of Lesion: MAMMARY GLAND: TUMOR, Dose [Carcinogen]: 15 MG/KG BW ONCE, Promoter: NONE USED) is listed as 81%, 48%, 41%, p<0.05.
In the case of `CC(=O)Oc1ccccc1C(=O)Oc1ccccc1C(=O)O`, the “tumour outcome (control, treated, inhibition, significance)” value (Carcinogen: NONE USED, Dose [Inhibitor]: 0, 0.1% IN CHOLINE-DEFICIENT DIET FOR 30 WK (STUDY DURATION: 30 WK), Route [Inhibitor]: ORAL, Species: RAT, Strain/Sex: F344/MALE, Target Tissue: Type of Lesion: LIVER: NEOPLASTIC NODULE, Promoter: NONE USED) is listed as 8/8 (100%), 10/10 (100%), 0%, not significant and 4/4 (100%), 3/3 (100%), 0%, not significant, the “tumour outcome (control, treated, inhibition, significance)” value (Carcinogen: NONE USED, Dose [Inhibitor]: 0, 0.2% IN CHOLINE-DEFICIENT DIET FOR 30 WK (STUDY DURATION: 30 WK), Route [Inhibitor]: ORAL, Species: RAT, Strain/Sex: F344/MALE, Target Tissue: Type of Lesion: LIVER: NEOPLASTIC NODULE, Promoter: NONE USED) is listed as 8/8 (100%), 4/11 (36%), 64%, p<0.05 and 4/4 (100%), 3/3 (100%), 0%, not significant and the “tumour outcome (control, treated, inhibition, significance)” value (Carcinogen: NONE USED, Dose [Inhibitor]: 0, 0.4% IN CHOLINE-DEFICIENT DIET FOR 30 WK (STUDY DURATION: 30 WK), Route [Inhibitor]: ORAL, Species: RAT, Strain/Sex: F344/MALE, Target Tissue: Type of Lesion: LIVER: NEOPLASTIC NODULE, Promoter: NONE USED) is listed as 4/4 (100%), 0/4 (0%), 100%, p<0.05. The “tumour outcome (control, treated, inhibition, significance)” value (Carcinogen: NONE USED, Dose [Inhibitor]: 0, 0.8% IN CHOLINE-DEFICIENT DIET FOR 30 WK (STUDY DURATION: 30 WK), Route [Inhibitor]: ORAL, Species: RAT, Strain/Sex: F344/MALE, Target Tissue: Type of Lesion: LIVER: NEOPLASTIC NODULE, Promoter: NONE USED) was 4/4 (100%), 0/3 (0%), 100%, p<0.05.
In the case of `COc1ccc(C(c2ccc(OC)cc2)C(Cl)(Cl)Cl)cc1`, the outcome (Carcinogen: N-NITROSOBIS(2-HYDROXYPROPYL)AMINE, 53609-64-6, Dose [Inhibitor]: 0, 1000 PPM IN DIET FOR 27 WK BEGINNING 9 WK POST CARCINOGEN TREATMENT (STUDY DURATION: 37 WK), Route [Inhibitor]: ORAL, Species: RAT, Strain/Sex: F344/FEMALE, Target Tissue: Type of Lesion: THYROID GLAND: ADENOMA, Dose [Carcinogen]: 2000 MG/KG BW 1 WK POST BILATERAL OVARIECTOMY, Promoter: SULFADIMETHOXINE, 122-11-2) is given as 0/12 (0%), 2/15 (13%), not significant and the “tumour outcome (control, treated, inhibition, significance)” value (Carcinogen: N-NITROSOBIS(2-HYDROXYPROPYL)AMINE, 53609-64-6, Dose [Inhibitor]: 0, 1000 PPM IN DIET FOR 27 WK BEGINNING 9 WK POST CARCINOGEN TREATMENT (STUDY DURATION: 37 WK), Route [Inhibitor]: ORAL, Species: RAT, Strain/Sex: F344/FEMALE, Target Tissue: Type of Lesion: THYROID GLAND: CARCINOMA, Dose [Carcinogen]: 2000 MG/KG BW 1 WK POST BILATERAL OVARIECTOMY, Promoter: SULFADIMETHOXINE, 122-11-2) is given as 10/12 (83%), 6/15 (40%), 52%, p<0.05.
